± gives the expanded uncertainty stated by the source. Blank lines part the entries; values can stand above or below the molecule they belong to.
Tests used:
[1] = xn = mol fraction of the nth substance listed; details: 332.7 K, 101 kPa, Liquid
[2] = 332.7 K; 101 kPa; Liquid

- mass density ([1]; x1 = 1): 851.36 ± 0.28 kg/m3
Structure (SMILES): CCOC(C)=O [ethyl acetate] + CC(C)CCO

- mass density [2]: 851.36 ± 0.28 kg/m3
Structure (SMILES): CCOC(C)=O [ethyl acetate]

- mass density [2]: 778.14 ± 0.37 kg/m3
Structure (SMILES): CC(C)CCO [3-methylbutan-1-ol]

- mass density ([1]; x2 = 0): 778.14 ± 0.37 kg/m3
- mass density ([1]; x2 = 0.0501): 780.94 ± 0.36 kg/m3
- mass density ([1]; x2 = 0.1087): 784.25 ± 0.36 kg/m3
- mass density ([1]; x2 = 0.1714): 788.1 ± 0.36 kg/m3
- mass density ([1]; x2 = 0.2296): 791.81 ± 0.35 kg/m3
- mass density ([1]; x2 = 0.29): 795.6 ± 0.35 kg/m3
- mass density ([1]; x2 = 0.3561): 799.89 ± 0.34 kg/m3
- mass density ([1]; x2 = 0.4088): 803.56 ± 0.34 kg/m3
- mass density ([1]; x2 = 0.4659): 807.59 ± 0.34 kg/m3
- mass density ([1]; x2 = 0.5339): 812.5 ± 0.33 kg/m3
- mass density ([1]; x2 = 0.5891): 816.6 ± 0.33 kg/m3
- mass density ([1]; x2 = 0.6597): 821.96 ± 0.32 kg/m3
- mass density ([1]; x2 = 0.7088): 825.91 ± 0.31 kg/m3
- mass density ([1]; x2 = 0.7693): 830.72 ± 0.31 kg/m3
- mass density ([1]; x2 = 0.8286): 835.79 ± 0.3 kg/m3
- mass density ([1]; x2 = 0.8882): 840.96 ± 0.3 kg/m3
- mass density ([1]; x2 = 0.9488): 846.43 ± 0.29 kg/m3
Structure (SMILES): CC(C)CCO [3-methylbutan-1-ol] + CCOC(C)=O
